Results on one molecule are retold here after patent publication US8999995B2, “Isotopically enriched arylsulfonamide CCR3 antagonists” (Axikin Pharmaceuticals, Inc., priority 2010, dated 2015).

Like-named read-outs stand apart in the source and are kept apart here.

For data set [1], the target named is T1, CCR3 receptor (UniProt P51677).
T1 sequence (P51677 1-355): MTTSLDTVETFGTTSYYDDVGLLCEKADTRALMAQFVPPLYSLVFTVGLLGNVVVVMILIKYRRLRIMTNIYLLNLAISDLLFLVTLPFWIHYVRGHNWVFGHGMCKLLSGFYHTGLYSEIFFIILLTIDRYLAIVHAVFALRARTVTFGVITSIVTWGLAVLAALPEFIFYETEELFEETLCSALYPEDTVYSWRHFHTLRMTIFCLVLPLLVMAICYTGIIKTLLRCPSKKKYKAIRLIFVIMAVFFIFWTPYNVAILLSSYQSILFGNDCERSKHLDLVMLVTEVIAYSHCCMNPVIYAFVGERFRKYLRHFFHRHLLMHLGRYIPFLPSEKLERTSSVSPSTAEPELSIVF
Briefly: CCR3 receptor binding assay ([125I]-labeled human eotaxin/CCL11 displacement on cells). The settings on record: 0.1 nM [125I]-labeled human eotaxin/CCL11, 60 min at room temperature. The protocol:
Cells were washed once with PBS and resuspended in a binding buffer (25 mM HEPES pH 7.6, 5 mM MgCl2, 1 mM CaCl2, 0.5% BSA, 0.1% NaN3). […] of cell suspension (2×10^5 cells/well) and 0.1 nM [^125I]-labeled human eotaxin/CCL11 (2000 Ci/mmol specific activity) were mixed in a 96-well U-bottom polypropylene plate, and incubated for 60 min at room temperature for the binding reaction. The cell suspension was then transferred to a filtration plate (#MAFB, Millipore), and washed 3 times with the binding buffer containing 0.5 M NaCl, scintillant added, and the radioactivity was counted on a TopCount (Packard). For the determination of non-specific binding, the cell suspension and [^125I]-labeled human eotaxin/CCL11 were incubated in the presence of 500 nM of unlabeled human eotaxin/CCL11. See, Iino et al., “Molecular cloning and functional characterization of cynomolgus monkey (Macaca fascicularis) CC chemokine receptor, CCR3,” Cytokine 2002, 19, 276-286.

Data set [2] is described as follows: Pharmacokinetic studies in male CD1 mice (PO and IV dosing, plasma by HPLC and MS). The class given is in vivo, mouse. The settings on record: for Cmax / AUC(0-inf): male, CD1, mouse. The protocol: Pharmacokinetic properties of compounds A1 and A2 were determined using 144 male CD1 mice, each approximately 25 g. Animals were acclimated for 2-3 days prior to study. Body weights of animals were measured for randomization. Animals were randomized into groups of 3 mice by body weights. Compounds A1 and A2 were provided at 2 mg/mL for oral dosing and 0.2 mg/mL for intravenous dosing. Each mouse received 100 μL of a test compound (or a body weight justified dose (5 mL/kg) via PO or IV on dosing days. Approximately 1.0 mL of the whole blood was collected for each animal via cardiac puncture at each time points. The blood was collected into lithium heparin tubes, processed to plasma, and snap frozen in dry ice. Plasma samples were stored at −80° C. before analysis. The samples were further analyzed by HPLC and MS.

As for `[2H]c1c([2H])c(Sc2cc(Cl)cc(Cl)c2)c(S(=O)(=O)N2CCN(C3CCCC3)CC2)c([2H])c1C#N` [Compound A1], the Ki in data set [1] came to 5.4 nM. Moreover, the Cmax came to 149 ng/mL in data set [2] (oral, 10 mg/kg, 2 mg/mL oral, 0.2 mg/mL intravenous dosing, 5 mL/kg, read-out: Cmax) and 14.9 ng/mL in data set [2] (oral, 10 mg/kg, dose-normalised, read-out: Cmax,norm). The AUC(0-inf) was 106 ng·h/mL in data set [2] (oral, 10 mg/kg, AUCinf,norm, dose-normalised, heading: AUCinf,norm) and 1060 ng·h/mL in data set [2] (oral, 10 mg/kg, read-out: AUCinf). Moreover, the MRT in data set [2] (mouse) turned out to be 6.9 h. This molecule had a half-life in data set [2] (mouse) of 2.51 h. Also, the bioavailability in data set [2] (mouse, PO versus IV) is 31.8%. For the same molecule, the Tmax in data set [2] (mouse, oral, 10 mg/kg) came to 0.5 h.

One may read the Ki as a dissociation constant, usually derived from enzyme kinetics or from competition with a known ligand. Higher therefore signals a looser hold on the target. The Cmax is the highest concentration seen after dosing. Broadly, the MRT is the average time that molecules of a dose stay in the body. Usually half-life stands for how long it takes for the measured level to halve. A lower half-life goes with fast loss. For orientation: bioavailability means dose-corrected exposure relative to a reference, in per cent. Read a low bioavailability as poor availability. In general, Tmax refers to the time from dosing to the highest level.
